Data published in patent US6699686B1, “Modified nuclear glucocorticoid receptor, fusion protein, and DNA fragments coding for said receptor and said fusion protein” (Association pour le Development de la Recherche en …, priority 1996, dated 2004).

Biological target: T1, wild-type hGR (Homo sapiens, UniProt P04150)
T1 construct: expressed in transfected cells
T1 sequence (P04150 1-777): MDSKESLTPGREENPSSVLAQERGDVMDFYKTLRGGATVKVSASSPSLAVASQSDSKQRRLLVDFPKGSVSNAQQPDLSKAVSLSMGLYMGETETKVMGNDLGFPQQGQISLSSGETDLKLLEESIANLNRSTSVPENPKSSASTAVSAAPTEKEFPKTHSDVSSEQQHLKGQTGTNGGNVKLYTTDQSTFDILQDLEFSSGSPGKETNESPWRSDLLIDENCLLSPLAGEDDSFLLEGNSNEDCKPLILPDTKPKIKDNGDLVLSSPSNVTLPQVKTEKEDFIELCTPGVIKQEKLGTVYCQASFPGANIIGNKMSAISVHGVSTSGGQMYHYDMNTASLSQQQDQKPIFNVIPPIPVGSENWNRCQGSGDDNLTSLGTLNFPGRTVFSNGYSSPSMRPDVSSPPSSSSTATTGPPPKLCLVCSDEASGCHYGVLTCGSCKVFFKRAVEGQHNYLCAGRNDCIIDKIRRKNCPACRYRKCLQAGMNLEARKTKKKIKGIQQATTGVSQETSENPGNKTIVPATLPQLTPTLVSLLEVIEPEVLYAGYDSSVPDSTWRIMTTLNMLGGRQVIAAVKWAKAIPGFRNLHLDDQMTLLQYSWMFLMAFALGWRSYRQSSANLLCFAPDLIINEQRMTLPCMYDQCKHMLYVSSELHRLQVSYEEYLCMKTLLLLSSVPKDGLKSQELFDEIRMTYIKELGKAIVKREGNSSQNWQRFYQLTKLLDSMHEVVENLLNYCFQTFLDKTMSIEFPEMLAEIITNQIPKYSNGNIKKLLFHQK
Assay: Transcriptional activation of pTAT-tk-Luc luciferase reporter in transiently transfected CV-1 cells
Assay type: cell-based
Parameters: Luciferase activity % Wild type: concentration or dose not given beside the values
Conditions: for Luciferase activity % Wild type: 24 h ligand, mean of three independent assays; for EC50: ligand concentration giving 50% of maximum transcriptional response
Method: The receptors were transiently expressed in GR-free CV-1 cells, conjointly with a luciferase reporter gene under the control of the tyrosine aminotransferase promoter (pTAT-tk-Luc).
After transfection, the cells were incubated for 24 hours with increasing concentrations of Dex, and they were then subjected to an assay of the β-galactosidase and luciferase activities, as described in “Materials and Methods”. The luciferase activity was normalized with the β-galactosidase activity, and the value obtained in the absence of ligand was subtracted for each point. The results were expressed as a percentage of the maximum luciferase activity obtained for each receptor. Each point is the mean±standard deviation of the mean of four separate determinations carried out in duplicate. […] The [^3H] steroid attached was measured after treatment with dextran-coated charcoal. The results presented are those for a single assay carried out in duplicate and representative of three separate assays.
Co-transfections were carried out and dose-response curves were constructed as described in FIG. 2. […] The assays of luciferase and β-galactosidase activity were carried out as described in “Materials and Methods”. The mean values of three independent assays are given in this table. nm=not measurable.
The CV-1 and Cos-7 cells were cultured in Dulbeco's modified Eagle's medium (DMEM) containing 10% (v/v) of fetal calf serum (FCS) (Gibco, Grand Island, N.Y.), in a humidified atmosphere containing 5% CO2. The HeLa cells were cultured under the same conditions. Transient transfections were carried out in 6-well multiplates according to the calcium phosphate procedure already described (42). A reference recombinant plasmid, pCMV-βgal, expressing bacterial β-galactosidase, was transfected conjointly with the receptor expression vector and the corresponding reporter gene so as to correct possible variations in he transfection efficiency. The precipitate was removed by washing after 24 hours, and the cells were kept in DMEX without FCS but containing hormone. After another 24 hours, the cells were rinsed and lysed for 15 minutes with 0.3 ml of lysis buffer [25 mM Tris.phosphate, pH 7.8, 8 mM […], 1% Triton X100, 10% glycerol (48)]. The corresponding luciferase activity as determined on an aliquot fraction (0.1 ml), by evaluation of the luminescence peak (for an integration time of 15 seconds), after injection of 0.1 ml of 1 mM luciferin in an LKB luminometer. The β-galactosidase was determined by the method modified by Bocquel et al. (49), for controlling the efficiency of each transfection.
The reporter gene pTAT-tk-Luc was provided by D. Gagne and was constructed as follows: an intermediate plasmid pTAT was first generated by insertion of the 966 bp EcoRI-BamHI segment obtained from pKT531 [offered freely by T. Grande (50)] into the corresponding sites of the vector pUC19 (Pharmacia). The fragment containing the sequence coding for the firefly luciferase and the thymidine kinase (tk) minimal promoter obtained from the Herpes simplex virus was isolated in the form of a BamHI fragment from pvit-tk-Luc (51) and inserted, downstream of the TAT promoter, into the corresponding site of pTAT. The reporter plasmid pGRE-tk-Luc was constructed by ligation of the fragment of HindIII-BglII digestion of pGRE-tk-CAT (52), which contains a synthetic GRE (AGAACAcagTGTTCT) upstream of the tk minimal promoter, into the HindIII-BglII sites of pLuc (53). The reporter gene p(17M)5-βGlob-Luc has been previously described (54). The reporter plasmid p(17M)5-tata-Luc was constructed from the plasmid p(17M)5-tata-CAT (55) by digestion with XhoI-BamHI and isolation of the fragment containing (17M5)-tata. This fragment was then inserted into the vector pGL2 (Promega) digested with the same restriction enzymes.

Row | Compound | stimulation of the luciferase reporter with the wild-type GR | Luciferase activity % Wild type | EC50
1 | C[C@]12CCC(=O)C=C1CC[C@@H]1[C@@H]2[C@@H](O)C[C@]2(C=O)[C@@H](C(=O)CO)CC[C@@H]12 [Aldosterone, aldosterone] | as effective as Dex | 90% | 0.05 µM
2 | C[C@]12CCC(=O)C=C1CC[C@@H]1[C@@H]2[C@@H](O)C[C@@]2(C)[C@H]1CC[C@]2(O)C(=O)CO [Cortisol, cortisol] | as effective as Dex | 110% | 
3 | C[C@]12C[C@H](O)[C@H]3[C@@H](CCC4=CC(=O)CC[C@@]43C)[C@@H]1CC[C@@H]2C(=O)CO [Corticosterone, corticosterone] | as effective as Dex | 100% | 0.07 µM
4 | C[C@@H]1C[C@H]2[C@@H]3CCC4=CC(=O)C=C[C@]4(C)[C@@]3(F)[C@@H](O)C[C@]2(C)[C@@]1(O)C(=O)CO [Dexamethasone, dexamethasone] |  | 100% | 
